Experimental data taken from PMC8322037 (International Journal of Biological Macromolecules, 2021).
pIC50: −log10 of the molar value.

Molecular target: SARS-CoV-2 3CL^pro (Severe acute respiratory syndrome coronavirus 2, UniProt P0DTD1)
Assay: biochemical
Details: for Ratio (IC50 0.5 min / IC50 60 min): IC50 shift between 0.5 min and 60 min preincubation

For `O=C1c2c(O)cc(O)cc2OC(c2ccc(O)c(O)c2)C1O` (centres unmarked) [Taxifolin], the pIC50 (IC50 0.5 (min)) was less than 3.70, the pIC50 (IC50 60 (min)) was 4.14 and the pIC50 (IC50 (three different doses), assayed by using three different doses, Fig. 4) was 4.00 to 5.00. The “Ratio (IC50 0.5 min / IC50 60 min)” value was greater than 2.75.

For Myricitrin, the “Ratio (IC50 0.5 min / IC50 60 min)” value was 8.32.
